The source of these data is patent US20240182475A1 (Université de Lausanne, priority 2021, published 2024).

The target in data set [1] is T1, recombinant human CSE (hCSE) (Homo sapiens, UniProt P32929).
T1 construct: purchased ProteoGenix, France
Nature of the data set: High-throughput screening pyruvate assay for CSE activators. The data set is classed as biochemical. To be noted: 5 μM; % of pyruvate generated over hCSE alone. The method, then: The chemical reactions involved in the 2 step assay are depicted. In (a) recombinant human CSE (hCSE) is incubated with L-cysteine, generating H2S and pyruvate. In (b) pyruvate is oxidized by pyruvate oxidase (PDX) to generate acetate, carbon dioxide (CO2) and hydrogen peroxide (H2O2). H2O2 then reacts with Amplex Red in a 1:1 stoichiometry to form the red fluorescent product, resorufin. (c) hCSE-dependent pyruvate measurement without enzyme (no pyruvate production), with the specific CSE inhibitor AVG 5 μM (inhibition of pyruvate production) and with the CSE activator calmodulin 5 μM (increased pyruvate production). Results were expressed as the % of pyruvate generated over hCSE alone. (d) Chemical structure of the new small molecule CSE activator SU004. (e) CSE-dependent pyruvate upon incubation of hCSE with L-cysteine and with increasing concentration of SU004. The ability of SU004 to activate hCSE was calculated as % of normalized activity.
We therefore hypothesized that potential CSE activators could counter these effects and be of therapeutic value in musculoskeletal HC. We set up a screening assay with human recombinant CSE (hCSE) and L-Cysteine as substrate, using as read-out the production of pyruvate as a surrogate of H2S production. As expected, pyruvate was detected only in presence of hCSE. […]

Data set [2] relates to MOVAS cells. Description: Cytotoxicity assay, LDH release. To be noted: at 0.3 uM. Format: cell-based, mouse. The method, then:
A) Alizarin red staining of MOVAS cells stimulated with CPP for 24 h in DMEM+10% FBS in presence of different concentrations of compound 22401. […] The background (Alizarin red staining obtained with cells in the absence of CPP) was subtracted from all values. B) Percentage of cytotoxicity, as measured by LDH release, in MOVAS cells in the same conditions as A). Statistical analysis was determined using one-way ANOVA with *p<0.05, **p<0.01, ***p<0.001.
Measurement of lactate dehydrogenase (LDH) as a means of cytotoxicity assay was performed with using CytoTox-ONE Homogeneous Membrane Integrity Assay (Promega) according to the manufacturer's instructions. Values were calculated as percentage of cytotoxicity using the following formula: [(value in sample)−(background)]/[(value in Triton X-100-treated sample)−(background)]×100.
A general note: LDH in the medium is a marker of cell lysis.

Data set [3] deals with MOVAS cells. Description: MOVAS cell calcification assay (Alizarin red). To be noted: Mus musculus, MOVAS; at 0.3 uM; read-out: Calcification assay Max calcification inhibition (%) at the indicated dose of compound. The data set is classed as cell-based, mouse. The method, then: A) Alizarin red staining of MOVAS cells stimulated with sCPP for 24 h in DMEM+10% FBS and treated or not with 50 uM of compounds. […] Statistical analysis was determined using one-way ANOVA with ***p<0.001. C) Percentage of cytotoxicity (LDH %) in MOVAS treated or not with compounds for 24 h. D) MOVAS cells were seeded onto half-area 96-well plate and incubated overnight. Then C5 or C6 at 50 uM or vehicle (DMSO), L-cysteine at 10 mM, PLP at 5 uM and the H2S sensitive fluorescent probe AzMC at 10 μM were added. The fluorescence was immediately measured in kinetic mode for 2 h at 37° C. with SpectraMax M5 reader, with excitation and emission wavelengths of 365 nm and 450 nm, respectively.
A) Alizarin red staining of Movas cells stimulated with sCPP for 24 h in DMEM+10% FBS and treated or not with 50 uM of Z20. […] C) Percentage of cytotoxicity (LDH %) in murine chondrocytes treated or not with Z20 for 24 h. Statistical analysis was determined using one-way ANOVA with ***p<0.001.
Alizarin red staining of MOVAS cells stimulated with sCPP for 24 h in DMEM+10% FBS and treated or not with different concentrations of compounds (A: C6) and (B: Z20). The graphs show Alizarin red absorbance at 570-630 nm. Statistical analysis was determined using one-way ANOVA with *p<0.05, **p<0.01, ***p<0.001.
CPP were generated by preparing 20 ml DMEM containing 10% FBS, 1 mmol/L CaCl2, 3.5 mmol/L inorganic phosphate (1.36 mmol/L NaH2PO4 and 2.14 mmol/L Na2HPO4) (Aghagolzadeh et al. Atherosclerosis, 2016). After 7 days incubation at 37° C., the suspension was centrifuged at 25000 g for 2 h at 4° C., and the pellet containing CPP was resuspended in 1 ml DMEM and stored at −20° C. until further use.
Mouse vascular smooth muscle cell line (MOVAS) cells were cultured according to the manufacturer's guidelines in DMEM culture medium supplemented with 10% FBS. Cells were cultured at 37° C. in a humidified atmosphere with 5% CO2. All cell culture experiments in 96-well plates were performed in triplicates and were repeated independently two times.
For calcification experiments, cells were seeded in 96-well plates at a density of 50,000 cells/well and left to attach for 18 h. Calcification of cell monolayers was induced by CPP (equivalent to 50 μg Ca/mL) for 24 h at 37° C., 5% CO2 in presence of various concentrations of compounds (all in final 0.1% DMSO), or of 0.1% DMSO as a control, to reach a final volume of 200 μl/well. Calcium deposition was assessed by 0.5% w/v Alizarin Red staining (pH 4.2). Briefly, after PBS washing, methanol fixation for 10 min at 4° C., and milli-Q water washing, cells were incubated for 60 min with 200 μL Alizarin Red solution and then washed four times with milli-Q water. Quantification was performed after crystal dissolution with cetylpyridinium chloride (10%) for 18 h. The absorbance was measured at 570 and 630 nm using the Spectramax M5e reader (Molecular Devices). The background (alizarin red staining obtained with cells in the absence of CPP) was subtracted from all values.

A further data set has as its target recombinant human CSE (Homo sapiens, UniProt P32929). Nature of the data set: CSE activity (AzMC probe assay), H2S production by recombinant human CSE. The data set is classed as biochemical. The method, then:
The activity of recombinant human CSE (rCSE) was tested in the presence of C5, compound 8 (50 uM), Z20 compound 13 (50 uM) or vehicle (DMSO). Briefly, compounds were added in reaction buffer (50 mM Tris-HCl, pH 8) containing 2 μg of rCSE, 10 mM CSE substrate L-cysteine, 5 uM pyridoxal 5′-phosphate (PLP). After addition of 10 μM of the H2S sensitive fluorescent probe 7-azido-4-methylcoumarin (AzMC) in a total volume of 100 μl, fluorescence was immediately measured in kinetic mode for 2 h at 37° C. with SpectraMax M5 reader, with excitation and emission wavelengths of 365 nm and 450 nm, respectively. Statistical analysis was determined using simple linear regression with p<0.0001 for C5 vs. vehicle and p<0.0002 for Z20 vs. vehicle.
Recombinant human CSE (1 μg/well) was incubated with various concentrations of compounds (all in final 0.1% DMSO), or with 0.1% DMSO as a control, in 10 mM sodium phosphate buffer pH 8.2. Next, 10 mM L-cysteine and 1 mM PLP and 10 μM of the probe AzMC were then added to reach 100 μL total volume. Fluorescence was measured for 3 h at 37° C. with excitation and emission wavelengths of 365 nm and 450 nm, respectively, in a 96-well half area black plate with transparent bottom.
Dose-response curve of each compound was performed, using triplicate wells for each tested doses. The background (10 mM sodium phosphate buffer with L-cysteine, PLP and AzMC) was subtracted from all values. Each mean value was converted to percent activity (0% defined as the smallest mean in each data set, 100% defined as the highest mean in each data set). The data were normalized using the four parameter logistic model (4PL) equation to calculate EC50 using GraphPad Prism.

The subject of data set [4] is WT murine primary chondrocytes. Description: Murine primary chondrocyte calcification (Alizarin red). Format: cell-based, mouse. The settings on record: WT chondrocytes incubated with 100 μM or 25 μM. The method, then: (a) WT and Cse-deficient chondrocytes were incubated with a CSE activator (SU004, 50 μM) previously identified by high-through put screen, or with the equivalent volume of DMSO (0.1%) for 24 hours in calcification medium. STS 25 mM was used as a positive control for calcification inhibition. Calcium-containing crystals were stained with Alizarin red and quantified. (b) Cytotoxicity was assessed by LDH measurement and expressed as % over 100% cytotoxicity. (c) IL-6 secretion was measured by ELISA in supernatant of WT chondrocytes incubated with SU004 50 μM or STS 25 mM for 24 hours in calcification medium. (d) Primary human chondrocytes from 3 OA patients (P1, P2, P3) were incubated with SU004 50 μM, or with the equivalent volume of DMSO (0.1%) for 24 hours in calcification medium. Calcium-containing crystals were stained with Alizarin red and quantified. (e) Cytotoxicity was assessed by LDH measurement and expressed as % over 100% cytotoxicity. (f) IL-6 secretion was measured by ELISA in supernatant of human chondrocytes incubated for 24 hours with SU004 50 μM in calcification medium. *p<0.05, ** p<0.01, ****p<0.0001.
Primary murine chondrocytes were stimulated with secondary calciprotein particles (sCPP) for 24 h in DMEM+10% FBS in presence of C5 or C6 at 50 uM or vehicle (DMSO). Mineralization was analyzed by Alizarin red staining of the cells (A) and quantified (B). Statistical analysis was determined using one-way ANOVA with **p<0.01 and ***p<0.001.
Chondrocytes were isolated from 6 days old mice (Cse KO, Cse tg, Cbs KO and corresponding WT mice) as described previously (Nasi, So, et al. 2016). Tenocytes were isolated from 6 to 8 weeks old mice (Cse KO and WT) and by double digestion in Collagenase IV NB standard grade (Witec AG). […]
After incubation in calcification media, supernatant was collected for ELISA and LDH measurement, and cell monolayer was washed in PBS, fixed in 10% formol and crystal deposition analyzed through Alizarin red staining and quantified as previously described

pEC50: −log10 of the molar value.

T1 sequence (P32929 whole entry): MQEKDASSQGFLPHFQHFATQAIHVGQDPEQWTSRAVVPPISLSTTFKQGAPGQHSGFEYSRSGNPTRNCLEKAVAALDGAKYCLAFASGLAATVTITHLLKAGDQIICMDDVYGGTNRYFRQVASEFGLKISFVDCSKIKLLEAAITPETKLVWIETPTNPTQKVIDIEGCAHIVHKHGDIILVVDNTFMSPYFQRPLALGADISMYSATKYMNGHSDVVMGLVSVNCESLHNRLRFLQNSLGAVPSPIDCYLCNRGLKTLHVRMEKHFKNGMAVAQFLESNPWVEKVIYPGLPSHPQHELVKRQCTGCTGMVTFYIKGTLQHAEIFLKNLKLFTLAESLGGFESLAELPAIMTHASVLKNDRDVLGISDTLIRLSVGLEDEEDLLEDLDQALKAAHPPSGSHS
Chain of recombinant human CSE (P32929 whole entry): as above

Regarding calmodulin, in data set [1], the hCSE-dependent pyruvate production entry is reported as “pyruvate up-modulation”.
On the same count and under the same terms, the entry for `NCCO/C=C/C(N)C(=O)O` (stereo not shown) [AVG] is “almost complete inhibition”.
As usually defined, the inhibition is the percentage by which the read-out fell short of the control. What is called pEC50 is the EC50 on a negative log10 scale, so that one unit is a factor of ten. As to `O=C(Nc1cnn(CC2CCCO2)c1)c1cccc2[nH]ccc12` (stereo not shown) [Compound 44, N-(1-((tetrahydrofuran-2-yl)methyl)-1H-pyrazol-4-yl)-1H-indole-4-carboxamide], the “Cytotoxicity assay LDH release (% of cytotoxicity)” value with MOVAS cells [2] was found to be 12% at. For the same compound, the inhibition at 0.3 µM in the data set on MOVAS cells [3] was 37%. Further, on recombinant human CSE ((RFU compound max - RFU compound 0/RFU CSE 2 ug - RFU compound 0)*100), the “CSE activity (AZMC probe assay) % of activation” value is given as 73%. For the same compound, the pEC50 on recombinant human CSE (EC50 calculated by the four-parameter logistic model) was 7.54.
With `N[C@@H](CCS)C(=O)O` [homocysteine, reference compound], the Calcification entry in data set [4] was “significantly decreased”.
